Measured values: patent US6080771A, “DC107 derivatives” (Kyowa Hakko Kogyo Co., Ltd., priority 1996, dated 2000)
≈ marks a conversion by molar mass, not a printed value. Like-named read-outs stand apart in the source and are kept apart here. Values belong to the molecule of their own block, whether it stands above or below them.

Assays:
[1] = tested on: Enterococcus hirae ATCC 10541; test: Antimicrobial activity, agar dilution method (MIC), EH; conditions: pH 7
Method: Antimicrobial activity was determined by the agar dilution method using a culture medium (pH 7) prepared by dissolving 3 g of Bacto-Tryptone (manufactured by Difco, Co.), 3 g of meat extract, 1 g of yeast extract, 1 g of glucose, and 16 g of agar in 1 l of water.
EH: Enterococcus hirae ATCC 10541

[2] = tested on: Escherichia coli ATCC 26; test: Antimicrobial activity, agar dilution method (MIC), EC; assay type: cell-based; conditions: ATCC26, pH 7, read-out: MIC, EC
Description: | EC: Escherichia coli ATCC 26

[3] = tested on: Klebisiella pneumoniae ATCC 10031; test: Antimicrobial activity, agar dilution method (MIC), KP; assay type: cell-based
Description: | KP: Klebisiella pneumoniae ATCC 10031

[4] = tested on: Staphylococcus aureus ATCC 6538P; test: Antimicrobial activity, agar dilution method (MIC), SA; assay type: cell-based; conditions: ATCC6538P, pH 7, read-out: MIC, SA
Description: | SA: Staphylococcus aureus ATCC 6538P

[5] = tested on: HeLa S3 cells; test: HeLa S3 cell growth inhibition test (Neutral Red); assay type: cell-based; conditions: Homo sapiens, read-out: HeLa S3 Cell Growth Inhibition Activity, IC50
Method: In each well of a 96-well microtiter plate was placed 0.1 mL of HeLa S3 cells having a concentration of 8×10^3 cells/mL and prepared in an MEM culture medium containing 10% fetal bovine serum and 2 mM glutamine. After the cells were incubated overnight at 37° C. in a carbon dioxide incubator, a test compound suitably diluted with a medium was added to the wells in an amount of 0.05 mL for each well. The cells were incubated at 37° C. for 72 hours in a carbon dioxide incubator. After the culture supernatant was removed, 0.1 mL of a culture medium containing 0.02% Neutral Red was added to each well. The cells were then incubated at 37° C. for 1 hour in a carbon dioxide incubator to dye the cells. After the culture supernatant was removed, each residue was rinsed once with physiological saline and the pigment was extracted with 0.001N hydrochloric acid/30% ethanol. The absorbance at 550 nm of each extract was measured with a microplate reader. The drug concentration required for the 50% inhibition of cell growth, which is referred to as IC50, was calculated by comparing the absorbance for untreated cells with those for cells treated with the drug in known concentrations.

[6] = tested on: Sarcoma 180 mouse solid tumor; test: Antitumor activity against Sarcoma 180 mouse solid tumor; assay type: in vivo, male ddY mice; conditions: Sarcoma-180, iv, 168 h, single i.v., tumor volume on day 7 from transplant, read-out: T/C (tumor volume ratio treated/control)
Method: To a ddY mouse were intraperitoneally transplanted 5×10^6 sarcoma 180 cells. On the seventh day from the transplant, the cells were collected from the ascites, washed once with sterilized physiological saline, and then diluted with sterilized physiological saline to prepare a cell suspension having a concentration of 5×10^7 cells/mL. This suspension was transplanted in an amount of 0.01 mL to a subcutaneous part of the right axilla of each of male ddY mice each weighing 20±1 g.
A test compound was dissolved in physiological saline containing polyoxyethylene sorbitan monolaurate. At 24 hours after the tumor transplant, 0.2 mL of the solution was intravenously administered to the tail of each of a group of five mice.

[7] = tested on: Bacillus substilis NO. 10707; test: Antimicrobial activity, agar dilution method (MIC), BS; assay type: cell-based
Description: | BS: Bacillus substilis NO. 10707

[8] = agar dilution, pH 7, read-out: MIC, KP
[9] = NO.10707, agar dilution, pH 7, read-out: MIC, BS

SMILES: COCCOCCOCCOCCOCCOCC(=O)OC1/C=C(\C)CCC2(CC(=O)NC(C)c3nc(cs3)/C=C\C=C\C1=O)[S+]([O-])SC(=O)C2(C)O (centres unmarked) [Compound 5]
MIC, EH [1]: 0.20 µg/mL (≈ 0.249 µM)
MIC [2]: 3.1 µg/mL (≈ 3.86 µM)
MIC [3, 8]: 0.39 µg/mL (≈ 0.486 µM)
MIC ([4]; agar dilution): 0.4 µg/mL (≈ 0.498 µM)
IC50 ([5]; HeLa S3, 72 h): 67 nM
response vs control in vivo at 8 mg/kg [6]: 30%
MIC [7, 9]: 0.2 µg/mL (≈ 0.249 µM)

SMILES: C/C1=C\C(OC(=O)COCCOCCO)C(=O)/C=C/C=C\c2csc(n2)C(C)NC(=O)CC2(CC1)[S+]([O-])SC(=O)C2(C)O (centres unmarked) [Compound 8]
MIC, EH [1]: 0.13 µg/mL (≈ 0.198 µM)
MIC [2]: 2.1 µg/mL (≈ 3.2 µM)
MIC [3, 8]: 0.13 µg/mL (≈ 0.198 µM)
MIC ([4]; agar dilution): 0.13 µg/mL (≈ 0.198 µM)
response vs control in vivo at 4 mg/kg [6]: 36%
MIC [7, 9]: 0.13 µg/mL (≈ 0.198 µM)

SMILES: COCCOCCOC(C)(C)C(=O)OC1/C=C(\C)CCC2(CC(=O)NC(C)c3nc(cs3)/C=C\C=C\C1=O)[S+]([O-])SC(=O)C2(C)O (centres unmarked) [Compound 10]
MIC, EH [1]: 0.081 µg/mL (≈ 0.116 µM)
MIC [2]: 0.65 µg/mL (≈ 0.93 µM)
MIC [3, 8]: 0.65 µg/mL (≈ 0.93 µM)
MIC ([4]; agar dilution): 0.081 µg/mL (≈ 0.116 µM)
MIC [7, 9]: 0.041 µg/mL (≈ 0.0587 µM)

IC50 ([5]; HeLa S3, 72 hours, 37° C.): 30 nM
SMILES: COCCOCC(=O)OC1/C=C(\C)CCC2(C(C)(O)C(=O)SCc3oc(=O)oc3C)CC(=O)N(C(C)c3nc(cs3)/C=C\C=C\C1=O)[S+]2[O-] (centres unmarked) [Compound 11]

SMILES: COCCOCCOCCOCC(=O)OC1/C=C(\C)CCC2(C(C)(O)C(=O)SCc3oc(=O)oc3C)CC(=O)N(C(C)c3nc(cs3)/C=C\C=C\C1=O)[S+]2[O-] (centres unmarked) [Compound 13]
response vs control in vivo at 8 mg/kg [6]: 39%

SMILES: C/C1=C\C(OC(=O)COCCOCCO)C(=O)/C=C/C=C\c2csc(n2)C(C)N2C(=O)CC(C(C)(O)C(=O)SCc3oc(=O)oc3C)(CC1)[S+]2[O-] (centres unmarked) [Compound 17]
MIC, EH [1]: 1.8 µg/mL (≈ 2.34 µM)
MIC ([3]; pH 7, read-out: MIC, KP): 1.8 µg/mL (≈ 2.34 µM)
MIC [4]: 1.8 µg/mL (≈ 2.34 µM)
response vs control in vivo at 8 mg/kg [6]: 37%
MIC ([7]; NO.10707, pH 7, read-out: MIC, BS): 1.82 µg/mL (≈ 2.37 µM)

SMILES: COCCOCCOCCOCCOCCOCC(=O)OC1/C=C(\C)CCC2(C(C)(O)C(=O)SCC3=C(C)OC(C)(C)OC3=O)CC(=O)N(C(C)c3nc(cs3)/C=C\C=C\C1=O)[S+]2[O-] (centres unmarked) [Compound 21]
response vs control in vivo at 16 mg/kg ([6]; 16 mg/kg): 45%

SMILES: COCCOCCOCC(=O)OC1/C=C(\C)CCC2(C(C)(O)C(=O)SCOC(=O)CC[C@H](NC(=O)OC(C)(C)C)C(=O)OC(C)(C)C)CC(=O)N(C(C)c3nc(cs3)/C=C\C=C\C1=O)[S+]2[O-] (some centres unmarked) [Compound 23]
IC50 ([5]; HeLa S3, 72 hours, 37° C.): 43 nM
response vs control in vivo at 8 mg/kg [6]: 48%

IC50 ([5]; HeLa S3, 72 hours, 37° C.): 21 nM
SMILES: COCCOCCOCCOCCOCCOCC(=O)OC1/C=C(\C)CCC2(C(C)(O)C(=O)SCOC(=O)CNC(=O)OC(C)(C)C)CC(=O)N(C(C)c3nc(cs3)/C=C\C=C\C1=O)[S+]2[O-] (centres unmarked) [Compound 24]

SMILES: C/C1=C\C(OC(=O)COCCOCCOCCOCCO)C(=O)/C=C/C=C\c2csc(n2)C(C)NC(=O)CC2(CC1)[S+]([O-])SC(=O)C2(C)O (centres unmarked) [Compound 27]
MIC, EH [1]: 0.065 µg/mL (≈ 0.0873 µM)
MIC [2]: 16.7 µg/mL (≈ 22.4 µM)
MIC [3, 8]: 0.065 µg/mL (≈ 0.0873 µM)
MIC ([4]; agar dilution): 0.13 µg/mL (≈ 0.175 µM)
response vs control in vivo at 8 mg/kg [6]: 18%
MIC [7, 9]: 0.13 µg/mL (≈ 0.175 µM)

SMILES: COCCOCCOCC(=O)OC1/C=C(\C)CCC2(C(C)(O)C(=O)SCOC(=O)CC[C@H](NC(=O)[C@@]34O[C@H]5COC(C)(C)O[C@H]5[C@@H]3OC(C)(C)O4)C(=O)OC)CC(=O)N(C(C)c3nc(cs3)/C=C\C=C\C1=O)[S+]2[O-] (some centres unmarked) [Compound 28]
response vs control in vivo at 8 mg/kg [6]: 31%

SMILES: COCCOCCOCC(=O)OC1/C=C(\C)CCC2(C(C)(O)C(=O)SCOC(=O)CC[C@H](NC(=O)C3(C)COC(C)(C)OC3)C(=O)OC)CC(=O)N(C(C)c3nc(cs3)/C=C\C=C\C1=O)[S+]2[O-] (some centres unmarked) [Compound 29]
response vs control in vivo at 8 mg/kg [6]: 47%

SMILES: COCCOCCOCC(=O)OCCOCCOCC(=O)OC1/C=C(\C)CCC2(CC(=O)NC(C)c3nc(cs3)/C=C\C=C\C1=O)[S+]([O-])SC(=O)C2(C)O (centres unmarked) [Compound 30]
response vs control in vivo at 4 mg/kg [6]: 43%
